# According to patent publication US20140213536A1, “MARKETING N-METHY[…] RELATED SUBSTANCES FOR USE IN TREATING/ LESSENING THE OCCURRENCE OF HOT FLASHES RELATED TO MENOPAUSE” (DSM IP ASSETS B.V., priority 2013, published 2014):
# Values joined by “and” are separate entries in the source; they are usually repeats but may differ in a detail not shown here. Equal entries are not always repeated.
# Columns and labels:
# [1] = system: ovariectomized female rats; experiment: Elevated plus maze task (anxiety-like behaviors); format: in vivo, rat
# Procedure: Elevated Plus Maze Task. Animals were tested on the elevated plus maze to measure anxiety-related behavior. The plus-maze is elevated ˜85 cm above the floor and consisted of two open and two closed arms of the same size (50×10 cm). The closed arms were surrounded by walls 40 cm high, and the arms were constructed of black acrylic slabs that radiate from a central platform (10×10 cm) to form a plus sign (Lafayette Instruments, Lafayette, Ind.). Each rat was placed in the central platform facing one of the open arms, and its behavior was recorded during a 5-min testing period with video capture software (AnyMaze). The amount of time spent on open and closed arms and the number of entries into open and closed arms were assessed with video analysis (AnyMaze). In addition, the animals were scored live by the experimenter for time spent rearing, grooming, and number of stretch-attend postures and head dips over the edge of the open arm.
# [2] = system: ovariectomized female rats; experiment: CGRP-induced hot flash / skin temperature in ovariectomized rats; format: in vivo, rat; details: for CGRP response of skin temperature above baseline (representative data, FIG. 3) / basal skin temperature (representative data, FIG. 3): NMS 0.48 or 18.5 ug/kg/d through diet, estradiol subcutaneous; for CGRP response of skin temperature above baseline (representative data, FIG. 3) / basal skin temperature (representative data, FIG. 3) / CGRP-induced hot flash response (repeated measures ANOVA, FIG. 9A): vs untreated controls; for CGRP-induced hot flash response (repeated measures ANOVA, FIG. 9A): seed supplying NMS-glucoside or NMS oxalate 18.5 or 55.5 μg/kg/d in diet, estradiol implant
# From the text: (§1) The animals arrived at approximately 60 days of age, and were placed on specific diets throughout the study (to approximately 160 days of age). The diets were formulated and provided by Dyets Inc. (Bethlehem, Pa.) and are based on a modified AIN-93G diet. These diets were fed ad libitum. Two weeks after arrival, at approximately 80 days of age, the animals were ovariectomized, allowed to recover for three weeks, and then placed on defined diets. In the first study, these diets contained 0, 0.08, 0.48, 3.2, 18.5, 185, or 3700 μg/kg/day of NMS dihydrochloride (FIG. 2). In the second, follow-up study, the diets contained no NMS (control), NMS oxalate (18.5 or 55.5 μg/kg/d), or milled Zanthoxylum seed in quantities that supplied NMS-glucoside at equivalent doses (18.5 or 55.5 μg/kg/d; FIG. 8). The NMS and NMS-glucoside content was verified using liquid chromatography with mass spectrometric detection. Extraction methods were similar to those of Yanase et al., 2010.
# (§2) All diets were fed for 2 weeks prior to the first behavioral assessment (open field). Positive control animals received a 5.0 mm subcutaneous silastic capsule implant packed with a crystalline 17β-estradiol and cholesterol mixture (25%, 0.058 inch inner diameter, 0.077 inch outer diameter; Dow Corning #508-006). Animals were then examined for locomotor activity (open field) and in two behavioral assays to assess mood (elevated plus maze and swim test) separated by two weeks in-between each assay. Two weeks after the final behavioral task (swim test), the animals were anesthetized and their physiological response to an experimentally-induced hot flash was tested. After the temperature monitoring was complete, tissue was harvested while the animals were still anesthetized.
# Ovariectomy. Two weeks after arrival, each animal was anesthetized via isoflurane inhalation and the dorsal mid-lumbar area was shaved and swabbed with surgical scrub, iodine and alcohol. The animal was then placed on a warm heat pad covered by a sterile cloth/pad in ventral recumbency with tail towards surgeon. A 2-3 cm dorsal midline skin incision was made halfway between the caudal edge of the ribcage and the base of the tail. A single transverse incision of 5.5-10 mm long was made into the muscle wall on both the right and left sides approximately ⅓ of the distance between the spinal cord and the ventral midline. The ovary and the oviduct were exteriorized through the muscle wall. A hemostat was clamped around the uterine vasculature between the oviduct and uterus and the uterine vasculature was ligated with dissolvable suture. Each ovary and part of the oviduct was removed with single cuts through the oviducts near the ovary. The hemostat was removed, and the remaining tissue replaced into the peritoneal cavity. The ovary on the other side was removed in a similar manner. The muscle incision is not sutured. Sterile wound clips were used to close the skin incision. Animals were monitored daily for signs of infection or morbidity.
# Hot Flash Studies. Animals were anesthetized with intraperitoneal co-injection of urethane (750 mg/kg) and α-chloralose (60 mg/kg). […] Thermistor probes (ADI Instruments, Colorado Springs, Colo.) were taped to the plantar surfaces of one hind foot. Forty minutes later, after anesthesia-induced hypothermia had stabilized, the basal skin temperature was recorded. Temperature monitoring then occurred at 5-second intervals throughout the remainder of the experiment. Calcitonin gene related peptide (CGRP; 10 μg/kg, i.v.) dissolved in saline was then injected via the tail vein. A maximum of eight animals were tested at the same time due to limitations on instrumental throughput. Cage mates were always tested together in order to avoid the stresses of single-housing and the potential stress hormone effects on body temperature. Therefore only four groups could be tested within any one given day.
# [3] = Body weight of ovariectomized rats on diets; format: in vivo, rat; details: for body weight throughout experiment (FIG. 6A): vs control diet / all other groups
# From the text: as §1, §2
# [4] = system: ovariectomized female rats; experiment: Uterine weight (uterotrophic effect) in ovariectomized rats; format: in vivo, rat; details: vs ovariectomized controls; for uterine weight (FIG. 6D): first study, after 80 days of supplementation; for uterine weight / uterine growth (FIG. 11A): follow-up study
# From the text: as §1, §2
# [5] = system: ovariectomized female rats; experiment: Open field task (locomotion, anxiety-like behaviors); format: in vivo, rat
# Procedure: (§3) Open Field Task. Animals were tested in the open field to measure overall locomotor activity and basal anxiety state. In the open field test each rat is placed in a novel environment consisting of an arena measuring 100×100×40 cm. Rats were placed in the middle of the chamber and behavior in the open field was recorded for thirty minutes with a digital camera and measured by software (AnyMaze, Stoelting Co., Inc.). The following parameters were analyzed: a) total distance traveled; b) time in center; c) center entries; and d) number of fecal boli excreted.
# [6] = molecular target: serotonin reuptake transporter (SERT) (Homo sapiens, UniProt P31645); details: FIG. 1C, Powell et al., 2008, cited from earlier work
# 5-HT7 receptor [7] = molecular target: T1, 5-HT7 receptor (Homo sapiens, UniProt P34969); details: FIG. 1B, cited from earlier work
# [8] = system: ovariectomized female rats; experiment: Behavioral measures of mood overall (open field, elevated plus maze, swim test); format: in vivo, rat
# Procedure: Animal Handling. Rats were handled each day for four days prior to behavioral analysis. This involved gently removing the animal from its cage and holding it in the experimenter's lap on a towel without restraint, allowing the animal to explore. This acclimatized the animal to handling by experimenters. All behavioral testing occurred in a room adjacent to the colony room, and the animals were acclimated to the test room overnight prior to testing.
# as §3
# Elevated Plus Maze Task. […] Each rat was placed in the central platform facing one of the open arms, and its behavior was recorded during a 5-min testing period with video capture software (AnyMaze). The amount of time spent on open and closed arms and the number of entries into open and closed arms were assessed with video analysis (AnyMaze). […]
# [9] = Circulating (plasma) estradiol in ovariectomized rats; format: in vivo, rat; details: dietary NMS; for plasma estradiol level (FIG. 5): first study, estradiol implant as positive control
# From the text: as §1, §2
# 5-HT7 receptor [10] = molecular target: T1, 5-HT7 receptor; details: 5-HT7 vs other 5-HT receptors; cited from earlier work
# [11] = system: ovariectomized female rats; experiment: Forced swim test (depressive-like behaviors); format: in vivo, rat
# Procedure: Swim Test. Each rat was examined in the swim test for depressive-like behaviors. The test was performed over two consecutive days since it is a measure of an adaptive response to a perceived inescapable situation. The first test establishes to the animal that it is an inescapable situation, and the second test measures the animal's degree of passive coping derived from an unwillingness to maintain effort in an inescapable situation. Typical antidepressants limit the amount of passive coping (immobility) and promote the amount of active coping (swimming/climbing). On day one (0800 h to 1300 h), animals were acclimated to the test by placing them in a plexiglass cylindrical container (45 cm×20 cm) filled with 30 cm of fresh water (25° C.) for fifteen minutes, after which they were toweled dried and returned to their home cage. On day two (24 hrs later) the test was performed for a total swim time of five minutes, after which the rats were toweled dried and returned to their home cage. Both trials were recorded by a digital video camera was secured to the ceiling above the cylinders and connected to a laptop. Total time spent swimming and immobile was measured real-time by behavioral software (Anymaze, Stoelting Co.), and scored post hoc by a blinded experimenter from captured video. […] Immobility was defined as absence of any movement except for slight movements necessary for the animal to keep its head above water. Climbing was defined as rapid movement of the forelimbs that broke the surface of the water.
# T1 sequence (P34969 whole entry): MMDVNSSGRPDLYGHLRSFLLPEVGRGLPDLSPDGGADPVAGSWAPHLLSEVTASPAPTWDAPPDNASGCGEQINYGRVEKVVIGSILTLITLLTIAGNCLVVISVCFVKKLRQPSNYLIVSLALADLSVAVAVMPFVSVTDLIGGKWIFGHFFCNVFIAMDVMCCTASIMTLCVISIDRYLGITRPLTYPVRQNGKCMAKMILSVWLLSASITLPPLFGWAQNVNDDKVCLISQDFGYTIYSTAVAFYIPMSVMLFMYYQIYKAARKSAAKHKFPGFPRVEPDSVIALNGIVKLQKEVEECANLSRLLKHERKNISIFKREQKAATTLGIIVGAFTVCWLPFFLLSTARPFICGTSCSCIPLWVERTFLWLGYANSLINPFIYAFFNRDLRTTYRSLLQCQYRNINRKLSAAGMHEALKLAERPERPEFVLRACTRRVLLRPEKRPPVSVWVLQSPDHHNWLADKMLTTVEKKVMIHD
# serotonin reuptake transporter (SERT), sequence (P31645 whole entry, species assumed): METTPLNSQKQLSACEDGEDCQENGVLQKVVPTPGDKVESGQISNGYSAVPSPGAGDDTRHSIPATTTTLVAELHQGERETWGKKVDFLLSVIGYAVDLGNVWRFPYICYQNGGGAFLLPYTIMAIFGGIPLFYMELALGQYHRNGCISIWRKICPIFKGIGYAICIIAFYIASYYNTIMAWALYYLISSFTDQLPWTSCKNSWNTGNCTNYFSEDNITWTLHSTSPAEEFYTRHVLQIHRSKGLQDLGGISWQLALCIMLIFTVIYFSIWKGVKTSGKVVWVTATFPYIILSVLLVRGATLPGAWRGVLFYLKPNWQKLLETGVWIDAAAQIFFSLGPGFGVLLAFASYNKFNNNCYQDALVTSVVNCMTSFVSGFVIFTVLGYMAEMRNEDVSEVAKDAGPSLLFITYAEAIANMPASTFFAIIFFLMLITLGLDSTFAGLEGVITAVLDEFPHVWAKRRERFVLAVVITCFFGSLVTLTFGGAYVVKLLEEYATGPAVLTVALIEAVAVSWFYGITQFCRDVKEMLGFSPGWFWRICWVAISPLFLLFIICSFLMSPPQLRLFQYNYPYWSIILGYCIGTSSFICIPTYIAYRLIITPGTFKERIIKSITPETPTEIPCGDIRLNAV
smiles,measurement,setting,value
"CNCCc1c[nH]c2ccc(O)cc12 [NMS, N-methylserotonin]",time spent in the open arms of elevated plus maze (FIG. 7D),[1]; first study,no differences amongst groups
same,effect of treatment in the elevated plus maze (FIG. 10B),[1]; follow-up study,No significant effects of treatment
same,human equivalent dose (HED) for thermoregulatory effects,"[2]; body surface area (BSA) method, first study",150 to 840 µg/day
same,basal skin temperature (FIG. 4),"[2]; first study, 18.5 ug/kg/d dietary NMS vs untreated controls",decreased basal skin temperature
same,"CGRP response of skin temperature above baseline (representative data, FIG. 3)",[2]; first study,lower CGRP responses
same,"basal skin temperature (representative data, FIG. 3)",[2]; first study,lower basal temperatures
same,"CGRP-induced hot flash response, baseline corrected (repeated measures ANOVA, FIG. 4)","[2]; first study, dietary NMS",blunted the CGRP-induced hot flash response
same,"CGRP-induced hot flash response (repeated measures ANOVA, FIG. 9A)",[2]; follow-up study,blunted the CGRP-induced hot flash response
same,"weight change as a percentage of original weight (FIG. 6B, C)","[3]; first study, throughout or at the end of the study",not different between dietary treatments
same,body weight throughout experiment (FIG. 6A),[3]; first study,did not alter body weight
same,overall weight change as a percentage of original weight at the end of the study (FIG. 11C),[3]; follow-up study,not different between dietary treatments
same,weight change as a percentage of original weight over time (FIG. 11B),"[3]; follow-up study, vs controls",different between controls and pepper supplemented or NMS supplemented groups
same,uterine weight (FIG. 6D),[4],did not alter uterine weight
same,uterine weight / uterine growth (FIG. 11A),[4],did not alter uterine weight
same,total distance traveled in open field (FIG. 7C),"[5]; first study, 30 minute test",no differences across groups
same,effect of treatment in the open field (FIG. 10A),[5]; follow-up study,No significant effects of treatment
same,fold lower affinity than Prozac at the serotonin reuptake transporter,[6],100 fold
same,IC50,[6]; read-out: IC50 of serotonin reuptake transporter inhibition,~500 nM
same,concentration of maximal activation of the 5-HT7 receptor,5-HT7 receptor [7],50 to 100 nM
same,EC50,5-HT7 receptor [7]; read-out: EC50 of 5-HT7 receptor activation,~22 nM and 22 nM
same,behavioral measures of mood (FIG. 7),"[8]; first study, dietary NMS",did not alter behavioral measures of mood
same,behavioral measures of mood / mood-related behaviors (FIG. 10),[8]; follow-up study,did not alter behavioral measures of mood
same,plasma estradiol level (FIG. 5),[9],increased plasma estradiol in a dose-dependent manner
same,non-uterine estradiol secretion,[9]; ovariectomized rats,tripled
same,binding preference among 5-HT receptors,5-HT7 receptor [10],binds preferentially to 5-HT7 receptors over other 5-HT receptors
same,"time spent climbing, second session of forced swim test (FIG. 7B)",[11]; first study,no significant differences amongst groups
same,effect of treatment in the forced swim test (FIG. 10C),[11]; follow-up study,No significant effects of treatment
"CNCCc1c[nH]c2ccc(O[C@@H]3O[C@H](CO)[C@@H](O)[C@H](O)[C@H]3O)cc12 [NMS-glucoside, N-methylserotonin 5-O-6-glucoside]",human equivalent dose (HED),"[2]; BSA calculation, follow-up study, NMS-glucoside in milled seed",150 to 540 µg/day
"C[C@]12CC[C@@H]3c4ccc(O)cc4CC[C@H]3[C@@H]1CC[C@@H]2O [estradiol, 17β-estradiol, reference compound]","CGRP response of skin temperature above baseline (representative data, FIG. 3)",[2]; first study,lowest responses to CGRP
same,"basal skin temperature (representative data, FIG. 3)",[2]; first study,lowest basal temperatures
same,"CGRP-induced hot flash response (repeated measures ANOVA, FIG. 9A)",[2]; follow-up study,blunted the CGRP-induced hot flash response
same,body weight throughout experiment (FIG. 6A),[3]; first study,significantly lower body weight
same,body weight throughout the experiment (FIG. 11B),"[3]; follow-up study, vs all other groups",significantly lower body weight
same,uterine weight (FIG. 6D),[4],significantly higher uterine weights
same,uterine weight / uterine growth (FIG. 11A),[4],significantly higher uterine weights
same,plasma estradiol level (FIG. 5),[9],highest levels of plasma estradiol
same,"time immobile, second session of forced swim test (FIG. 7A)",[11]; first study,spent less time immobile
